Counter-ions that a name gives are not always drawn.

For one assay, the system named is up-regulation of ICAM-1 (CD54) by IFNγ in U937 human monocytic cells. The experiment in a line: U937 IFNγ ICAM1 FACS Assay. The class given is cell-based. To be noted: U937 cells stimulated with IFNγ; ICAM-1 expression by FACS; dihydrochloride; read-out: IC50, Example 44. A digest of the protocol:
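Readout was the geometric-mean APC anti-ICAM-1 signal by FACS on live U937 monocytic cells, with % live cells also recorded. Cells were exposed to compounds (8 points, 3-fold dilutions, duplicates) for 30 min at 37 °C before 18–24 h of IFNγ stimulation. EC50 values were computed from the dose curve.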
The term IC50 denotes the midpoint of a concentration-inhibition curve. Regarding `CNS(=O)(=O)c1cc(Nc2ncc(F)c(Nc3ccc(Cn4ccnc4)cc3)n2)ccc1C` [III-86, 5-Fluoro-N2-[3-(N-methylaminosulfony)-4-methylphenyl]-N4-[4-(1-imidazolylmethyl)phenyl]-2,4-pyrimidinediamine dihydrochloride], the IC50 is 6450 nM.

Still in this assay, the particulars now being: U937 cells stimulated with IFNγ; ICAM-1 expression by FACS; hydrochloride; read-out: IC50, Example 44.
Turning to `CNS(=O)(=O)c1cc(Nc2ncc(F)c(Nc3ccc(Cn4ccnc4)cc3)n2)ccc1C` [III-85, 5-Fluoro-N2-[3-(N-methylaminosulfony)-4-methylphenyl]-N4-[4-(1-imidazolylmethyl)phenyl]-2,4-pyrimidinediamine hydrochloride], the half-maximal inhibitory concentration (IC50) was 3620 nM.

Still in this assay, the particulars now being: U937 cells stimulated with IFNγ; ICAM-1 expression by FACS; read-out: IC50, Example 44.
`NS(=O)(=O)c1cccc(Nc2ncc(F)c(Nc3ccc(OCc4cccnc4)cc3)n2)c1` [Compound I-188, N2-(3-Aminosulfonylphenyl)-5-fluoro-N4-[4-(3-pyridinyl)methyleneoxyphenyl]-2,4-pyrimidinediamine]: the IC50 turned out to be 500 nM.
Still for that read-out and setting: as for `Cc1ccc(Nc2ncc(F)c(Nc3ccc(OCc4cccnc4)cc3)n2)cc1S(N)(=O)=O` [Compound I-189, N2-(3-Aminosulfonyl-4-methylphenyl)-5-fluoro-N4-[4-(3-pyridinyl)methyleneoxyphenyl]-2,4-pyrimidinediamine], the figure is 508 nM.
Regarding `CNS(=O)(=O)c1cc(Nc2ncc(F)c(Nc3ccc(OCc4cccnc4)cc3)n2)ccc1C` [Compound I-190, 5-Fluoro-N2-[3-(N-methylaminosulfony)-4-methylphenyl]-5-fluoro-N4-[4-(3-pyridinyl)methyleneoxyphenyl]-2,4-pyrimidinediamine], the concentration for half-maximal inhibition (IC50) is 1500 nM.
On the same count and under the same terms, the result for `CCN(CC)CCNS(=O)(=O)c1ccc(Nc2ncc(F)c(Nc3ccc(OCc4cccnc4)cc3)n2)cc1` [Compound I-191, N2-[4-(2-N,N-Diethylaminoethyl)aminosulfonylphenyl)-5-fluoro-N4-[4-(3-pyridinyl)methyleneoxyphenyl]-2,4-pyrimidinediamine] reads 796 nM; that for `NS(=O)(=O)c1cccc(Nc2ncc(F)c(Nc3ccc(SCc4cccnc4)cc3)n2)c1` [Compound I-192, N2-(3-Aminosulfonylphenyl)-5-fluoro-N4-[4-(3-pyridinyl)-methylenethiophenyl]-2,4-pyrimidinediamine], 978 nM; that for `NS(=O)(=O)c1cccc(Nc2ncc(F)c(Nc3ccc(OCc4ccccn4)cc3)n2)c1` [Compound I-196, N2-(3-Aminosulfonylphenyl)-5-fluoro-N4-4-[(2-pyridinyl)methyleneoxyphenyl]-2,4-pyrimidinediamine Hydrochloride Salt], 754 nM.
The same measure, in the same setting: as for `Cc1cc(COc2ccc(Nc3nc(Nc4ccc(C)c(S(N)(=O)=O)c4)ncc3F)cc2)[nH]n1` [Compound I-197, N2-(3-Aminosulfonyl-4-methylphenyl)-5-fluoro-N4-[4-(3-methyl-(1H)-pyrazol-5-yl)methyleneoxyphenyl]-2,4-pyrimidinediamine], the figure is 1280 nM; as for `Cc1cc(COc2ccc(Nc3nc(Nc4ccc(C)c(S(N)(=O)=O)c4)ncc3F)cc2)n(C)n1` [Compound I-198, N2-(3-Aminosulfonyl-4-methylphenyl)-N4-[4-(1,3-dimethyl-(1H)-pyrazol-5-yl)methyleneoxyphenyl]-5-fluoro-2,4-pyrimidinediamine], 805 nM; as for `Cc1cc(COc2ccc(Nc3nc(Nc4ccc(C)c(S(N)(=O)=O)c4)ncc3F)cc2)n(Cc2ccccc2)n1` [Compound I-199, N2-(3-Aminosulfonyl-4-methylphenyl)-N4-[4-(1-benzyl-3-methyl-(1H)-pyrazol-5-yl)methyleneoxyphenyl]-5-fluoro-2,4-pyrimidinediamine], 2690 nM.
For `Cc1cc(COc2cccc(Nc3nc(Nc4ccc(C)c(S(N)(=O)=O)c4)ncc3F)c2)no1` [Compound I-214], the IC50 came to 1300 nM.
For the molecule `N#CCn1ccc2cc(Nc3nc(Nc4cccc(S(N)(=O)=O)c4)ncc3F)ccc21` [IX-5, N2-(3-Aminosulfonylphenyl)-N4-(1-cyanomethyleneindol-5-yl)-5-fluoro-2,4-pyrimidinediamine], the IC50 turned out to be 1850 nM.
`N#CCn1ccc2cc(Nc3nc(Nc4ccc(Cl)c(S(N)(=O)=O)c4)ncc3F)ccc21` [IX-7, N2-(3-Aminosulfonyl-4-chlorophenyl)-N4-(1-cyanomethyleneindol-5-yl)-5-fluoro-2,4-pyrimidinediamine]: the 50% inhibitory concentration (IC50) was found to be 4730 nM.
On the same count and under the same terms, as for `Cc1ccc(Nc2ncc(F)c(Nc3ccc4c(ccn4CC#N)c3)n2)cc1S(N)(=O)=O` [IX-8, N2-(3-Aminosulfonyl-4-methylphenyl)-N4-(1-cyanomethyleneindol-5-yl)-5-fluoro-2,4-pyrimidinediamine], the figure is 543 nM.
Still for that read-out and setting: as for `Cc1ccc(Nc2ncc(F)c(Nc3ccc4[nH]cc(CC#N)c4c3)n2)cc1S(=O)(=O)NC1CCN(C)CC1` [IX-19, N4-(3-cyanomethylene-1H-indol-5yl)-5-fluoro-N2-[3-(1-methyl-4-aminopiperadine)sulfonyl-4-methylphenyl]-2,4-pyrimidinediamine], the figure is 3370 nM.
Same read-out and setting: as for `Cc1ccc(Nc2ncc(F)c(Nc3ccc4c(c3)c(CC#N)cn4C)n2)cc1S(N)(=O)=O` [IX-20], the figure is 2900 nM.
For the molecule `NS(=O)(=O)c1cccc(Nc2ncc(F)c(Nc3ccc(OCC(F)(F)F)cc3)n2)c1` [VI-47, N2-(3-Aminosulfonylphenyl)-5-fluoro-N4-(4-trifluoromethylmethyleneoxyphenyl)-2,4-pyrimidinediamine], the concentration for half-maximal inhibition (IC50) amounted to 596 nM.
Turning to `COCCOc1ccc(Nc2nc(Nc3ccc(Cl)c(S(N)(=O)=O)c3)ncc2F)cc1` [VI-111, N2-(3-Aminosulfonyl-4-chlorophenyl)-5-fluoro-N4-[4-(2-methoxyethyleneoxy)phenyl]-2,4-pyrimdinediamine], the IC50 worked out at 3430 nM.
The same measure, in the same setting: as for `COCCOc1ccc(Nc2nc(Nc3ccc(C)c(S(N)(=O)=O)c3)ncc2F)cc1` [VI-112, N2-(3-Aminosulfonyl-4-methylphenyl)-5-fluoro-N4-[4-(2-methoxyethyleneoxy)phenyl]-2,4-pyrimdinediamine], the figure is 1260 nM; as for `CCS(=O)(=O)N1CCc2cc(Nc3nc(Nc4ccc(S(N)(=O)=O)cc4)ncc3F)ccc2C1` [VII-13, N2-(4-aminosulfonyl)phenyl-N4-[(N-ethylsulfonyl)-1,2,3,4-tetrahydroisoquinolin-6-yl]-5-fluoro-2,4-pyrimidinediamine], 1290 nM; as for `CCS(=O)(=O)N1CCc2cc(Nc3nc(Nc4cccc(S(N)(=O)=O)c4)ncc3F)ccc2C1` [VII-14, N2-(3-aminosulfonyl)phenyl-N4-[(N-ethylsulfonyl)-1,2,3,4-tetrahydroisoquinolin-6-yl]-5-fluoro-2,4-pyrimidinediamine], 877 nM.
The same measure, in the same setting: as for `CCS(=O)(=O)N1CCc2cc(Nc3nc(Nc4ccc(C)c(S(N)(=O)=O)c4)ncc3F)ccc2C1` [VII-15, N2-(3-aminosulfonyl-4-methyl)phenyl-N4-[(N-ethylsulfonyl)-1,2,3,4-tetrahydroisoquinolin-6-yl]-5-fluoro-2,4-pyrimidinediamine], the figure is 568 nM; as for `Cc1ccc(Nc2ncc(F)c(Nc3ccc4c(c3)CNCC4)n2)cc1S(N)(=O)=O` [VII-16, N2-(3-Aminosulfonyl-4-methylphenyl)-5-fluoro-N4-(1,2,3,4-tetrahydroisoquin-7-yl)-2,4-pyrimidinediamine], 24400 nM.
Regarding `CNC(=O)N1CCc2ccc(Nc3nc(Nc4ccc(C)c(S(N)(=O)=O)c4)ncc3F)cc2C1` [VII-17, N2-(3-Aminosulfonyl-4-methylphenyl)-5-fluoro-N4-[2-(methylaminocarbonyl)-1,2,3,4-tetrahydroisoquin-7-yl]-2,4-pyrimidinediamine], the IC50 worked out at 6960 nM.
The same measure, in the same setting: as for `Cc1ccc(Nc2ncc(F)c(Nc3ccc4c(c3)CN(C(=O)N(C)C)CC4)n2)cc1S(N)(=O)=O` [VII-18, N2-(3-Aminosulfonyl-4-methylphenyl)-5-fluoro-N4-[2-(dimethylaminocarbonyl)-1,2,3,4-tetrahydroisoquin-7-yl]-2,4-pyrimidinediamine], the figure is 1290 nM; as for `CNC(=O)N1CCCc2cc(Nc3nc(Nc4ccc(C)c(S(N)(=O)=O)c4)ncc3F)ccc21` [VII-19, N2-(3-Aminosulfonyl-4-methylphenyl)-5-fluoro-N4-[1-(methylaminocarbonyl)-1,2,3,4-tetrahydroquin-6-yl]-2,4-pyrimidinediamine], 1260 nM.
Still for that read-out and setting: as for `COCCCn1ncc2cc(Nc3nc(Nc4cccc(S(N)(=O)=O)c4)ncc3F)ccc21` [VII-22, N2-(3-Aminosulfonylphenyl)-5-fluoro-N4-[1-(3-methoxypropyl)indazolin-5-yl]-2,4-pyrimidinediamine], the figure is 849 nM; as for `COCCn1ncc2cc(Nc3nc(Nc4cccc(S(N)(=O)=O)c4)ncc3F)ccc21` [VII-23, N2-(3-Aminosulfonylphenyl)-5-fluoro-N4-[1-(2-methoxyethyl)indazolin-5-yl]-2,4-pyrimidinediamine], 596 nM.
On to `NC1CCOc2ccc(Nc3nc(Nc4ccc(S(N)(=O)=O)cc4)ncc3F)cc21` (centres unmarked) [VII-29, N2-(4-Aminosulfonylphenyl)-N4-(chroman-4-amine-6-yl)-5-fluoro-2,4-pyrimidinediamine], for which the IC50 stood at 38500 nM.
Consider `N#CCN1C(=O)CSc2ccc(Nc3nc(Nc4cccc(S(N)(=O)=O)c4)ncc3F)cc21` [VII-36, N2-(3-Aminosulphonylphenyl)-5-fluoro-N4-(3-oxo-4-cyanomethyl-benzo[1,4]thiazin-6-yl)-2,4-pyrimidinediamine], for which the IC50 stood at 1090 nM.
The same measure, in the same setting: the result for `CN1C(=O)C(C)(C)Oc2cc(Nc3nc(Nc4cccc(S(N)(=O)=O)c4)ncc3F)cnc21` [VII-42, N2-(3-Aminosulfonylphenyl)-N4-[2,2,4-trimethyl-3-oxo-5-pyrid[1,4]oxazin-7-yl]-5-fluoro-2,4-pyrimidinediamine] reads 45500 nM.

These data come from patent US11827628B2, “Compositions and methods for inhibition of the JAK pathway” (Rigel Pharmaceuticals, Inc., priority 2005, dated 2023).
